The source of these data is patent publication US20230127499A1, “PEPTIDES AND ADJUVANTS FOR AU[…] […] FOR CORONAVIRUS” (FIGENE, LLC, priority 2020, published 2023).

The subject of one assay is healthy rats. The following applies: 500 ng intra-tracheally; within 5 hours; versus saline-treated control rats; cited from earlier work.
Another assay has as its system neutrophils. As to conditions: cited from earlier work; for neutrophil apoptosis: 100 ng/mL.
The subject of assay [1] is human peripheral blood mononuclear cell (PBMC) derived monocytes. The assay is described as follows: Endotoxin-induced TNF production in monocyte/fibroblast cultures (ELISA). The assay is classed as cell-based. The following applies: LPS 1 ug/ml, FIG. 5. The protocol: Hydroxychloroquine (Sigma Aldrich) was diluted at the concentrations indicated. Levels of tumor necrosis factor (TNF) were assessed by ELISA.
A general note: An ELISA detects its analyte on a solid surface through an enzyme-linked reagent.

Where two headings read alike, the source gives them in different places.

With TNF-alpha, in the assay on healthy rats, the lung lavage neutrophils result is reported as “substantially higher”, the lung leak entry is “substantially higher” and the “lung myeloperoxidase (MPO) activity” value is listed as “substantially higher”. Further, the neutrophil apoptosis result in the assay on neutrophils (at 4-8 h) was “increased”. For the same compound, the neutrophil apoptosis entry with neutrophils (at 24 h) is recorded as “markedly suppressed”. Also, the “levels of IL-8” value in the assay on neutrophils (PMN cultured for 24 h) is reported as “markedly increased”.

`CCN(CCO)CCCC(C)Nc1ccnc2cc(Cl)ccc12` (stereo not shown) [hydroxychloroquine]: the “production of TNF-alpha from macrophages” value in assay [1] was “suppressed production of TNF-alpha”.
